Assay results: patent publication US20260364215A1, “Radiopharmaceutical Compositions Targeting Ephrin Type-A Receptor 2 and Uses Thereof” (PeptiDream Inc., priority 2022, published 2026)
Numbered stars: 1 amine (or outer) side, 2 acyl side, 3 side chain; on linkers, the order of the positions; unused ones are H or OH. Bridge positions count the residues as written; N and C are the ends. Square brackets hold non-standard residues; d marks the D form. Side chains are listed from the residue outwards. Peptide text beside a SMILES is read from it. * marks the point of attachment. DOTA(Lu) = O=C1CN2CCN3CCN(CC(=O)*)CCN(CC2)CC(=O)[O][Lu]([O]1)[O]C(=O)C3; DOTA = O=C(O)CN1CCN(CC(=O)O)CCN(CC(=O)*)CCN(CC(=O)O)CC1; Trp(1-Me,7-Cl) = Cn1cc(C[C@H](N)C(=O)O)c2cccc(Cl)c21; dPhe(3-CONH2) = NC(=O)c1cccc(C[C@@H](N)C(=O)O)c1; Piperazinyl(4-CH2COOH) = O=C(O)CN1CCN(*)CC1; Trp(1-Me) = Cn1cc(C[C@H](N)C(=O)O)c2ccccc21; NMe3Pal = CN[C@@H](Cc1cccnc1)C(=O)O; hArg = N=C(N)NCCCC[C@H](N)C(=O)O; Gly(cBu) = N[C@H](C(=O)O)C1CCC1; NMeE = CN[C@@H](CCC(=O)O)C(=O)O; Aad = N[C@@H](CCCC(=O)O)C(=O)O; CO = O=C([*:1])[*:2]

Legend:
[1] = target: T1, Recombinant Human EphA2 Fc Protein (Homo sapiens, UniProt P29317); assay: Interaction analysis (kinetics, KD) of peptides and conjugates against EphA2 by SPR, Biacore T200, single-cycle kinetics (Examples B15 and B22); assay type: binding; conditions: conjugates, Biacore T200 according to Example B15, Table B16; read-out: SPR Kd
T1 construct: purchased Elabscience
How it was run: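 Biacore T200 SPR with Fc-tagged human EphA2 captured via anti-human antibody; running buffer HBS-P+ pH 7.4 with 1% DMSO, 25 °C. Five serial dilutions of peptide or conjugate run by single-cycle kinetics; KD from ka and kd after baseline subtraction.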

[2] = target: T2, EphA2 (Biotin-Avi-His-EphA2; Fc-EphA2 where the peptide had a biotin) (Homo sapiens, UniProt P29317); assay: Surface plasmon resonance (SPR) peptide binding, Biacore 8K, immobilized EphA2, single cycle kinetics (Example C7); conditions: 25 °C, Langmuir 1:1
T2 construct: His; purchased SinoBiologicals 13926-H27H-B
Procedure: Example C7. Surface Plasmon Resonance (SPR)
For analysis of peptide binding, a Biacore 8K instrument was used utilizing a SA chip. Biotin-Avi-His-EphA2 (SinoBiologicals, 13926-H27H-B) was immobilized on the chip using streptavidin-biotin chemistry at 25 °C in HBS-P+ buffer (10 mM HEPES, 150 mM NaCl, 0.05% Tween-20, pH 7.4) to a level of 1000-2000 RU (dependent on the analyte molecular weight). […] A dilution series of peptides was prepared in this buffer with a final DMSO concentration of 0.1% with a top peptide concentration between 10-100 nM and 9 further 2-fold dilutions. The SPR analysis was run at 25 °C at a flow rate of 30 μL/min in HBS-P+ with 0.1% DMSO running buffer and with a 120 second association and 1,200 second dissociation using single cycle kinetics methodology. All data was analyzed using Biacore Insight Evaluation Software version 4. Data was fitted using a Langmuir 1:1 binding model.

[3] = Plasma stability (% remaining of test compound in CD-1 (ICR) mouse plasma at 37 °C; Example C1); assay type: in vitro ADME
Procedure: Example C1. Plasma Stability
The pooled frozen CD-1 (ICR) mouse plasma was thawed in a water bath at 37 °C prior to experiment. Plasma was centrifuged at 4000 rpm for 5 min and the clots were removed if any. pH was adjusted to 7.4±0.1 if required.
Plasma (98 μL) and test compounds (2 μL, 100 μM, in DMSO) or reference compound propantheline bromide (2 μL, 100 μM in 40% v/v MeOH/H2O) were added to the individual wells of a 96-well microtiter plate in duplicate. The plate was incubated at 37 °C. During the incubation, aliquots were withdrawn at 0, 10, 30, 60, 120, and 300 minutes. 100 μL 4% H3PO4 and 800 μL of stop solution (200 ng/mL tolbutamide and 200 ng/mL labetalol in 100% CH3CN) were added to precipitate unwanted proteins. After mixing thoroughly, the quenched aliquots were centrifuged at 4,000 rpm for 20 min. Aliquots (100 μL) of supernatant were transferred to a new plate. The samples were shaken at 800 rpm for 10 min before performing LC-MS/MS analysis.
The analytes were detected by a multiple reaction monitoring method using a SCIEX Triple Quad 6500+ system equipped with an ACQUITY UPLC HSS T3 column (100 Å, 1.8 μm, 2.1 mm×30 mm). Mobile phase A: water with 0.1% formic acid; Mobile phase B: CH3CN with 0.1% formic acid.
(§1) The % remaining of test compound after incubation in plasma was calculated using the following equation:
(§2) % Remaining=100×(PAR(t)/PAR(t0)), where PAR is the peak area ratio of analyte versus internal standard (IS)

[4] = Plasma stability (% remaining and T1/2 of test compound in human plasma; Table C1); assay type: in vitro ADME
Procedure: as §1, §2

T2 sequence (P29317 24-534 limits assumed): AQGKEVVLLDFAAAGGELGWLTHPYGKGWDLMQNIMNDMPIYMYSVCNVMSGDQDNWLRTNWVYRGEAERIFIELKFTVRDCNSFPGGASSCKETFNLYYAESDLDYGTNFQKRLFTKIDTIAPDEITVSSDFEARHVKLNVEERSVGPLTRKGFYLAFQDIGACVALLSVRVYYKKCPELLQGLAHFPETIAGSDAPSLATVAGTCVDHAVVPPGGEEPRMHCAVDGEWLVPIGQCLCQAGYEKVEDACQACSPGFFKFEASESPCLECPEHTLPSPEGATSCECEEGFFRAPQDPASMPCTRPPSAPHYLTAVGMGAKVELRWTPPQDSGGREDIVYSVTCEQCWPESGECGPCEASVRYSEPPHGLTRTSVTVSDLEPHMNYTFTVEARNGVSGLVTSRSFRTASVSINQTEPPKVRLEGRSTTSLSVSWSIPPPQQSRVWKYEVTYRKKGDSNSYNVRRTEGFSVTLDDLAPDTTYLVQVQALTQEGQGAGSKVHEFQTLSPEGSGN
T1 sequence (P29317 24-534 limits assumed): as above

Structure (SMILES)	Kd [1] [nM]	KD [2] [M⁻¹]	% Remaining Mouse ([3]; 0 min) [%]	remaining at 2 h, 2 µM ([3]; pH 7.4, 120 min) [%]	half-life at 2 µM ([3]; pH 7.4, read-out: T1/2 (min) Mouse) [min]	half-life [4] [h]	% Remaining Human ([4]; 0 min) [%]	remaining at 2 h ([4]; 120 min) [%]
CC(C)C[C@@H]1NC(=O)[C@H](CC(N)=O)NC(=O)[C@H](Cc2cccnc2)N(C)C(=O)[C@@H](C)NC(=O)CSC[C@@H](C(=O)N[C@H](CCCCNC(=O)CN2CCN3CCN4CCN(CC2)CC(=O)[O][Lu]([O]C(=O)C3)[O]C(=O)C4)C(N)=O)NC(=O)[C@H](CCCC(N)=O)NC(=O)[C@H]([C@@H](C)O)NC(=O)[C@H](Cc2cn(C)c3ccccc23)NC(=O)[C@H](CCCCNC(=O)N2CCN(CC(=O)O)CC2)NC(=O)[C@H](Cc2cn(C)c3ccccc23)NC(=O)[C@H](CCC(=O)O)N(C)C(=O)[C@H](CCCC(N)=O)NC1=O [PDC_EphA2-00007196-C302] ({CH2CO}-[dA][NMe3Pal]NL[Aad](NH2)[NMeE][Trp(1-Me)]K([CO-Piperazinyl(4-CH2COOH)])[Trp(1-Me)]T[Aad](NH2)C[dK](DOTA(Lu))-NH2; thioether N-12)	< 1	3.74e-10	100.0	99.4	> 289	> 4.82	100.0	96.3
CC(C)C[C@@H]1NC(=O)[C@H](CC(N)=O)NC(=O)[C@H](Cc2cccnc2)N(C)C(=O)[C@@H](C)NC(=O)CSC[C@@H](C(=O)N[C@H](CCCCNC(=O)CN2CCN(CC(=O)O)CCN(CC(=O)O)CCN(CC(=O)O)CC2)C(N)=O)NC(=O)[C@H](CCCCNC(=N)N)NC(=O)[C@H]([C@@H](C)O)NC(=O)[C@H](Cc2cn(C)c3ccccc23)NC(=O)[C@H](CCCCNC(=O)N2CCN(CC(=O)O)CC2)NC(=O)[C@H](Cc2cn(C)c3ccccc23)NC(=O)[C@H](CCC(=O)O)N(C)C(=O)[C@H](CCCC(N)=O)NC1=O.[Lu+3] [PDC_EphA2-00008010-C302] ({CH2CO}-[dA][NMe3Pal]NL[Aad](NH2)[NMeE][Trp(1-Me)]K([CO-Piperazinyl(4-CH2COOH)])[Trp(1-Me)]T[hArg]C[dK](DOTA)-NH2; thioether N-12)	< 1	2.11e-10						
C[C@@H](O)[C@@H]1NC(=O)[C@H](Cc2cn(C)c3ccccc23)NC(=O)[C@H](CCCCNC(=O)N2CCN(CC(=O)O)CC2)NC(=O)[C@H](Cc2cn(C)c3c(Cl)cccc23)NC(=O)[C@H](CCC(=O)O)N(C)C(=O)[C@H](CCCC(N)=O)NC(=O)[C@H](C2CCC2)NC(=O)[C@H](CC(N)=O)NC(=O)[C@H](Cc2cccnc2)N(C)C(=O)[C@@H](Cc2cccc(C(N)=O)c2)NC(=O)CSC[C@@H](C(=O)N[C@H](CCCCNC(=O)CN2CCN(CC(=O)O)CCN(CC(=O)O)CCN(CC(=O)O)CC2)C(N)=O)NC(=O)[C@H](CCCC(N)=O)NC1=O.[Lu+3] [PDC_EphA2-00019440-C302] ({CH2CO}-[dPhe(3-CONH2)][NMe3Pal]N[Gly(cBu)][Aad](NH2)[NMeE][Trp(1-Me,7-Cl)]K([CO-Piperazinyl(4-CH2COOH)])[Trp(1-Me)]T[Aad](NH2)C[dK](DOTA)-NH2; thioether N-12)	< 1	8.18e-11						
C[C@@H](O)[C@@H]1NC(=O)[C@H](Cc2cn(C)c3ccccc23)NC(=O)[C@H](CCCCNC(=O)N2CCN(CC(=O)O)CC2)NC(=O)[C@H](Cc2cn(C)c3c(Cl)cccc23)NC(=O)[C@H](CCC(=O)O)N(C)C(=O)[C@H](CCCC(N)=O)NC(=O)[C@H](C2CCC2)NC(=O)[C@H](CC(N)=O)NC(=O)[C@H](Cc2cccnc2)N(C)C(=O)[C@@H](Cc2cccc(C(N)=O)c2)NC(=O)CSC[C@@H](C(=O)N[C@H](CCCCNC(=O)CN2CCN(CC(=O)O)CCN(CC(=O)O)CCN(CC(=O)O)CC2)C(N)=O)NC(=O)[C@H](CCCCNC(=N)N)NC1=O.[Lu+3] [PDC_EphA2-00019443-C302] ({CH2CO}-[dPhe(3-CONH2)][NMe3Pal]N[Gly(cBu)][Aad](NH2)[NMeE][Trp(1-Me,7-Cl)]K([CO-Piperazinyl(4-CH2COOH)])[Trp(1-Me)]T[hArg]C[dK](DOTA)-NH2; thioether N-12)	< 1	2.7e-11						
